According to patent US4293694A, “Pyrido[3,2,1-jk]carbazols” (Otsuka Pharmaceutical Co., Ltd., priority 1979, dated 1981):
In brackets after ≈: the same amount, converted by molar mass. Where two headings read alike, the source gives them in different places.

Assays:
[1] = system: Esherichia coli NIHJ JC-2; experiment: Antimicrobial activity, serial dilution method on agar plate; assay type: cell-based; conditions: read-out: Minimum Inhibitory Concentration (MIC)
[2] = system: Klebsiella pneumoniae ST-101; experiment: as above; assay type: cell-based; conditions: ST101, read-out: Minimum Inhibitory Concentration (MIC)
[3] = system: Bacillus cereus ATCC 11778; experiment: as above; assay type: cell-based; conditions: ATCC11778, read-out: Minimum Inhibitory Concentration (MIC)
Streptomyces viridans = experiment: as above; assay type: cell-based; conditions: read-out: Minimum Inhibitory Concentration (MIC)
[4] = system: Enterbactor aerogenes IFO 12979; experiment: as above; assay type: cell-based; conditions: read-out: Minimum Inhibitory Concentration (MIC)
Acute toxicity = conditions: rat, in vivo, rats, dd strain, 18 to 22 g, fasted 12 hours
Experimental: Further, the acute toxicity of the compounds of the present invention having the formula (I) was determined by intravenous administration (i.v.) and oral administration (p.o.) in 5 to 6 groups of rats (dd strain; body weight, 18 to 22 g; 10 rats in each group) which had been fasted for 12 hours prior to the test.

[5] = system: Micrococcus flavus ATCC 10240a; experiment: Antimicrobial activity, serial dilution method on agar plate; assay type: cell-based; conditions: ATCC10240A, read-out: Minimum Inhibitory Concentration (MIC)
Enterbactor cloacae 2 = experiment: as above; assay type: cell-based; conditions: read-out: Minimum Inhibitory Concentration (MIC)
[6] = system: Staphyrococcus aureus FDA 209p; experiment: as above; assay type: cell-based; conditions: read-out: Minimum Inhibitory Concentration (MIC)
[7] = system: Serratia marcescens ATCC 14756; experiment: as above; assay type: cell-based; conditions: ATCC14756, read-out: Minimum Inhibitory Concentration (MIC)
[8] = system: Staphyrococcus aureus Newmann; experiment: as above; assay type: cell-based; conditions: read-out: Minimum Inhibitory Concentration (MIC)
[9] = system: Pseudomonas aeruginosa ATCC 10145; experiment: as above; assay type: cell-based; conditions: ATCC10145, read-out: Minimum Inhibitory Concentration (MIC)
[10] = system: Streptococcus faecalis IFO 12580; experiment: as above; assay type: cell-based; conditions: Enterococcus faecalis, IFO12580, read-out: Minimum Inhibitory Concentration (MIC)
[11] = system: Bacillus subtilis ATCC 6633; experiment: as above; assay type: cell-based; conditions: ATCC6633, read-out: Minimum Inhibitory Concentration (MIC)
[12] = system: Salmonella typhimurium kh; experiment: as above; assay type: cell-based; conditions: Salmonella enterica, read-out: Minimum Inhibitory Concentration (MIC)
Proteus mirabilis 1287 = experiment: as above; assay type: cell-based; conditions: read-out: Minimum Inhibitory Concentration (MIC)
Bacillus anthracis = experiment: microbe, parasite or virus in culture; assay type: cell-based; conditions: read-out: Minimum Inhibitory Concentration (MIC)
Sarcina lutea ATCC 9341 = experiment: Antimicrobial activity, serial dilution method on agar plate; assay type: cell-based; conditions: Micrococcus luteus, ATCC9341, read-out: Minimum Inhibitory Concentration (MIC)
Candida albicans KYU = experiment: as above; assay type: cell-based; conditions: read-out: Minimum Inhibitory Concentration (MIC)
Esherichia coli NIHJ = experiment: as above; assay type: cell-based; conditions: read-out: Minimum Inhibitory Concentration (MIC)
[13] = iv, read-out: LD50 (50% lethal dose), i.v.
[14] = po, read-out: LD50 (50% lethal dose), p.o.

| Structure (SMILES) | MIC [1] | MIC [2] | MIC [3] | MIC (Streptomyces viridans) | MIC [4] | LD50 (Acute toxicity; [13]) | LD50 (Acute toxicity; [14]) | MIC [5] | MIC (Enterbactor cloacae 2) | MIC [6] | MIC [7] | MIC [8] | MIC [9] | MIC [10] | MIC [11] | MIC [12] | MIC (Proteus mirabilis 1287) | MIC (Bacillus anthracis) | MIC (Sarcina lutea ATCC 9341) | MIC (Candida albicans KYU) | also measured |
| --- | --- | --- | --- | --- | --- | --- | --- | --- | --- | --- | --- | --- | --- | --- | --- | --- | --- | --- | --- | --- | --- |
| Cc1cc(C)c2c(=O)c(C(=O)O)cn3c2c1C1CCCCC13 (stereo not drawn) [Compound 5, 1,3-Dimethyl-7a,8,9,10,11,11a-hexahydro-4-oxo-4H-pyrido[3,2,1-jk]carbazol-5-carboxylic acid] | 12.5 µg/mL (≈ 42 µM) | 12.5 µg/mL (≈ 42 µM) | 25 µg/mL (≈ 84.1 µM) | > 100 µg/mL | 12.5 µg/mL (≈ 42 µM) | 120 mg/kg | 3000 mg/kg | 100 µg/mL (≈ 336 µM) | 6.3 µg/mL (≈ 21.2 µM) | 6.3 µg/mL (≈ 21.2 µM) | 6.3 µg/mL (≈ 21.2 µM) | 6.3 µg/mL (≈ 21.2 µM) | > 100 µg/mL | > 100 µg/mL | 6.3 µg/mL (≈ 21.2 µM) | 12.5 µg/mL (≈ 42 µM) | 12.5 µg/mL (≈ 42 µM) | 6.3 µg/mL (≈ 21.2 µM) | 100 µg/mL (≈ 336 µM) | > 500 µg/mL | MIC (Esherichia coli NIHJ): 12.5 µg/mL (≈ 42 µM) |
| O=C(O)c1cn2c3c(cccc3c1=O)C1CCCCC12 (stereo not drawn) [Compound 2, 7a,8,9,10,11,11a-Hexahydro-4-oxo-4H-pyrido[3,2,1-jk]carbazol-5-carboxylic acid] | 25 µg/mL (≈ 92.8 µM) | 12.5 µg/mL (≈ 46.4 µM) | 100 µg/mL (≈ 371 µM) | > 100 µg/mL | 12.5 µg/mL (≈ 46.4 µM) | 120 mg/kg | 5000 mg/kg | 100 µg/mL (≈ 371 µM) | 12.5 µg/mL (≈ 46.4 µM) | 25 µg/mL (≈ 92.8 µM) | 12.5 µg/mL (≈ 46.4 µM) | 25 µg/mL (≈ 92.8 µM) | > 100 µg/mL | > 100 µg/mL | 12.5 µg/mL (≈ 46.4 µM) | 25 µg/mL (≈ 92.8 µM) | 50 µg/mL (≈ 186 µM) | 25 µg/mL (≈ 92.8 µM) | 100 µg/mL (≈ 371 µM) | > 500 µg/mL | MIC (Esherichia coli NIHJ): 25 µg/mL (≈ 92.8 µM) |
